Results: US12533330B2, “(2S)-2-aminopentanethioic s-acid for use as medicament and in therapy of amyotrophic lateral sclerosis” (MASSEY VENTURES LIMITED, priority 2020, dated 2026)

Legend:
Type in all cases: in vivo
[1] = test system: FUS[1-359]-tg mouse line (FUS-tg); experiment: Rotarod test in FUS-tg mouse ALS model; conditions: week 5, via drinking water, one-way ANOVA and Tukey's test
Excerpt: (§1) A transgenic FUS[1-359]-tg mouse line (FUS-tg) was used to test the efficacy of the substance of formula (I) in the therapy of amyotrophic lateral sclerosis according to the guidelines set for ALS preclinical studies. Ludolph A C et al. Guidelines for preclinical animal research in ALS/MND: A consensus meeting. Amyotroph Lateral Scler. 2010; 11:38-45. Mutations in DNA/RNA-binding factor (fused-in-sarcoma) FUS cause ALS in humans. The FUS-tg mouse model recapitulates core hallmarks of human ALS in the spinal cord, including neuroinflammation and neurodegeneration, ensuing muscle atrophy and paralysis. […] J Biol Chem. 2013; 288:25266-25274. Lutz C. Mouse models of ALS: Past, present and future. […] CNS Neurosci Ther. 2020; 26(5):504-517.
(§2) The substance (I) and the substance (IX) represent (2S)- and (2R)-enantiomers of 2-aminopentanethioic S-acid, respectively. The (2R)-enantiomer (IX) was included to the study to clarify importance of (S)- and (R)-configurations of 2-aminopentanethioic S-acid during the therapy of ALS.

[2] = test system: FUS[1-359]-tg mouse line (FUS-tg); experiment: Onset of paralysis in FUS-tg mouse ALS model; conditions: for percentage of FUS-tg mice with signs of paralysis on day 95: FUS-tg male mice, six weeks via drinking water from age nine weeks, (I) and (IX) 50 mg/kg/day, Riluzole 8 mg/kg
Excerpt: as §1, §2
The onset of paralysis, a core ALS symptom, was recorded for each FUS-tg mouse.

[3] = test system: FUS[1-359]-tg mouse line (FUS-tg); experiment: Malondialdehyde (MDA) concentration in spinal cord of FUS-tg mice; conditions: 50 mg/kg/day via drinking water, one-way ANOVA and Tukey's test
Excerpt: A transgenic FUS[1-359]-tg mouse line (FUS-tg) was used to test the efficacy of the substance of formula (I) in the therapy of amyotrophic lateral sclerosis according to the guidelines set for ALS preclinical studies. Ludolph A C et al. Guidelines for preclinical animal research in ALS/MND: A consensus meeting. Amyotroph Lateral Scler. 2010; 11:38-45. Mutations in DNA/RNA-binding factor (fused-in-sarcoma) FUS cause ALS in humans. The FUS-tg mouse model recapitulates core hallmarks of human ALS in the spinal cord, including neuroinflammation and neurodegeneration, ensuing muscle atrophy and paralysis. Shelkovnikova T A et al. Fused in sarcoma (FUS) protein lacking nuclear localization signal (NLS) and major RNA binding motifs triggers proteinopathy and severe motor phenotype in transgenic mice. J Biol Chem. 2013; 288:25266-25274. Lutz C. Mouse models of ALS: Past, present and future. Brain Res. 2018; 1693:1-10. de Munter J et al. Neuro-Cells therapy improves motor outcomes and suppresses inflammation during experimental syndrome of amyotrophic lateral sclerosis in mice. CNS Neurosci Ther. 2020; 26(5):504-517. […]
The concentration of malondialdehyde (MDA), a marker of oxidative stress, was measured in the spinal cord of FUS-tg mice treated with vehicle or substance of formula (I) in comparison with wild type controls. […]

Row | Structure (SMILES) | latency to fall in the rotarod test vs. vehicle-treated FUS-tg mice [1] | percentage of FUS-tg mice with signs of paralysis on day 95 [2] [%] | significance of percentage of mice with signs of paralysis on the 95th day vs. vehicle ([2]; FUS-tg mice, day 95, Fisher test vs. vehicle) | MDA levels in the spinal cord vs. vehicle-treated FUS-tg mice [3]
1 | CCC[C@@H](N)C(=O)S [substance (IX), (2R)-2-aminopentanethioic S-acid, reference compound] | no significant difference | 43 | – | –
2 | CCC[C@H](N)C(=O)S [substance (I), (2S)-2-aminopentanethioic S-acid] | significantly longer latency to fall | 16 | significantly lower | significant reduction of the MDA levels
